This passage reports IC50 results from patent EP3478687B1 (Daewoong Pharmaceutical Co., Ltd., priority 2016, dated 2018).

Assay [1] concerns the target T1, Recombinant purified human JAK3 (Homo sapiens, UniProt P52333).
T1 construct: purchased Promega V9441
T1 sequence (P52333 1-1124): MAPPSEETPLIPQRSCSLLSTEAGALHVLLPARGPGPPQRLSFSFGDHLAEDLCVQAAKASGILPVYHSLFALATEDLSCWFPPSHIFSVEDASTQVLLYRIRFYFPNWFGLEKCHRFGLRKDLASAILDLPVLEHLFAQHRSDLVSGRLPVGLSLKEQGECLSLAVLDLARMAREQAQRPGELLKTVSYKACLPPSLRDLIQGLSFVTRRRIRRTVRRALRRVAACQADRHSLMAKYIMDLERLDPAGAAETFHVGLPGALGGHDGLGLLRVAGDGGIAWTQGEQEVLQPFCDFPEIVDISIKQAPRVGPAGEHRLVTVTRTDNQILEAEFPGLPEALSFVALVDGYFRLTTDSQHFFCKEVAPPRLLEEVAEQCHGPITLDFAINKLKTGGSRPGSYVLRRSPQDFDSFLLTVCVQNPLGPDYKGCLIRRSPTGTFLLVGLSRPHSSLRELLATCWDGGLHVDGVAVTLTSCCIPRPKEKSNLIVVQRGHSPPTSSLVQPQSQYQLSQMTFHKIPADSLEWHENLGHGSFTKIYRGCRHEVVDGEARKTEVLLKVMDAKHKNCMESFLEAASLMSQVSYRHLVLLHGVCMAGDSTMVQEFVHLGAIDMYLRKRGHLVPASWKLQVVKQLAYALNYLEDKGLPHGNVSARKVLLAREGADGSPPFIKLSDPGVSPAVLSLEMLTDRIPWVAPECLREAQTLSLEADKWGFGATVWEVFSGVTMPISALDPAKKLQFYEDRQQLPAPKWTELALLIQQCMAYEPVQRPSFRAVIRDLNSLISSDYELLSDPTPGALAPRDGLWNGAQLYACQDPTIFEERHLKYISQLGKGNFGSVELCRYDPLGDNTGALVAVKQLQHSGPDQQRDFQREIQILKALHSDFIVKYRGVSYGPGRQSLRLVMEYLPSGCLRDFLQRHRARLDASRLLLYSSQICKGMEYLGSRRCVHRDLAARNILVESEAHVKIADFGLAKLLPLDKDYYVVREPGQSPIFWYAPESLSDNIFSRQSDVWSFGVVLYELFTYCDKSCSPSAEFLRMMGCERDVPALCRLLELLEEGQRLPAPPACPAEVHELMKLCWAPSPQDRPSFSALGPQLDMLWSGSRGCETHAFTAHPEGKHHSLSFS
As to the kind of experiment: JAK3 kinase inhibitory activity, ADP-Glo kinase assay (Promega V9441). It is filed as biochemical. Conditions: ATP 5 uM, 4 ng JAK3 per reaction, 1 hour 30 °C, chemiluminescence. How it is done: (§1) JAK3 and BTK kinase inhibitory activities were measured for the compounds prepared in the above Examples through in vitro analysis on the ADP Glow (Glo) platform.
(§2) Specifically, the inhibitory activities of JAK3 and BTK kinase were measured using a JAK3 kinase assay kit (Promega, V9441) and a BTK kinase assay kit (Promega, V9071) which were purchased from Promega. Recombinant purified human JAK3 and BTK were diluted with 1 x kinase reaction buffer (JAK3: 40 mM Tris-Cl, pH 7.5, 20 mM MgCh, 0.1 mg/mL BSA and 50 uM DTT / BTK: 40 mM Tris-Cl, pH 7.5, 20 mM MgCl2, 0.1 mg/mL BSA, 2 mM MnCl2 and 50 uM DTT) and added to a 96 well plate (JAK3: final concentration of 4 ng per reaction/BTK: final concentration of 8 ng per reaction). The compounds were treated so as to be finally a 1% DMSO aqueous solution, and a substrate cocktail containing ATP (JAK3: final concentration of 5 uM / BTK: final concentration of 10 uM) and 0.2 µg/µL of Poly(Glu4, Tyr1) peptide (JAK3 and BTK final concentration) in the total 25 µL reactants was added to a 96-well plate to initiate enzymatic reaction. After incubation (30 °C) for 1 hour, equivalent volume (25 µL per reaction) of ADP Glo was added and incubated (30 °C) for 40 minutes at room temperature. Then, a kinase detection reagent (50 µL per reaction) was added and incubated (30 °C) for 30 minutes at room temperature. The kinase activity was measured by chemiluminescence according to the instructions of ADP Glo kinase assay kit, and the inhibitory activity of the compounds according to the present invention was calculated. For the analysis of the results of each compound, Microsoft Excel was used, and IC50 values were calculated by SigmaPlot software.

The target in assay [2] is T2, Recombinant purified human BTK (Homo sapiens, UniProt Q06187).
T2 construct: purchased Promega V9071
T2 sequence (Q06187 whole entry): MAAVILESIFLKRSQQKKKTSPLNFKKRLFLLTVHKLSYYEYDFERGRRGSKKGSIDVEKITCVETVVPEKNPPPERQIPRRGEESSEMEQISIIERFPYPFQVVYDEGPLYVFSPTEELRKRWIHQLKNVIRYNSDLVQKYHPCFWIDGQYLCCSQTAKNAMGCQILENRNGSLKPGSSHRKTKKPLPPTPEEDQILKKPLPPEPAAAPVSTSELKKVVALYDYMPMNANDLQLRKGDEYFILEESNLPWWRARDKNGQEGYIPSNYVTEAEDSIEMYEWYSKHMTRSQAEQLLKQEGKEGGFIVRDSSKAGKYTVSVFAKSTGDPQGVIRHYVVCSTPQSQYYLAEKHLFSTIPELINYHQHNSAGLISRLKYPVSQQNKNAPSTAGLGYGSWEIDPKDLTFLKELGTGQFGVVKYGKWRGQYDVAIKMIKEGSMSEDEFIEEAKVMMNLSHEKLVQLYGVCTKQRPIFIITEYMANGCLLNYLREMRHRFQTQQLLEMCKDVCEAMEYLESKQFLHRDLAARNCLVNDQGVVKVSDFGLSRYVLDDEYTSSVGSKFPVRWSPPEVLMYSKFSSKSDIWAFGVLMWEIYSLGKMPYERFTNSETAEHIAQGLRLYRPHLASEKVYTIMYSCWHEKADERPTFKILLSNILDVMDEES
As to the kind of experiment: BTK kinase inhibitory activity, ADP-Glo kinase assay (Promega V9071). The conditions noted are these: ATP 10 uM, 8 ng BTK per reaction, 1 hour 30 °C, chemiluminescence. It counts as biochemical. As for the experimental part:
as §1, §2

A word on the IC50: it is the concentration needed to halve the response being measured. Regarding `C=CC(=O)N1CCC[C@@H](Nc2nc(Nc3cnn(C(F)F)c3)nc3[nH]cc(Cl)c23)C1` [Example 38, (R)-1-(3-(5-chloro-2-(1-(difluoromethyl)-1H-pyrazol-4-ylamino)-7H-pyrrolo[2,3-d]pyrimidin-4-ylamino)piperidin-1-yl)prop-2-en-1-one], the IC50 in assay [1] stood at 0.1 nM; in assay [2] it was 4.3 nM.

For the molecule `C=CC(=O)N1CCC[C@@H](Nc2nc(Nc3cnn(CC(F)F)c3)nc3[nH]cc(Cl)c23)C1` [Example 39, (R)-1-(3-(5-chloro-2-(1-(2,2-difluoroethyl)-1H-pyrazol-4-ylamino)-7H-pyrrolo[2,3-d]pyrimidin-4-ylamino)piperidin-1-yl)prop-2-en-1-one], the IC50 turned out to be 0.1 nM in assay [1] and 1.9 nM in assay [2].

As to `C=CC(=O)N1CCC[C@@H](Nc2nc(Nc3cnn(CCN4CCOCC4)c3)nc3[nH]cc(Cl)c23)C1` [Example 40, (R)-1-(3-(5-chloro-2-(1-(2-morpholinoethyl)-1H-pyrazol-4-ylamino)-7H-pyrrolo [2,3-d]pyrimidin-4-ylamino)piperidin-1-yl)prop-2-en-1-one], the IC50 in assay [1] is 0.2 nM; in assay [2], 1.8 nM.

Take `C=CC(=O)N1CCC[C@@H](Nc2nc(Nc3cnn(Cc4cccc(OC)c4)c3)nc3[nH]cc(Cl)c23)C1` [Example 41, (R)-1-(3-(5-chloro-2-(1-(3-methoaybenzyl)-1H-pyrazol-4-ylamino)-7H-pyrrolo[2,3-d]pyrimidin-4-ylamino)piperidin-1-yl)prop-2-en-1-one]: the concentration for half-maximal inhibition (IC50) in assay [1] came out at 0.5 nM; in assay [2], 1.8 nM.

Turning to `C=CC(=O)N1CCC[C@@H](Nc2nc(Nc3ccc(N4CCN(C)CC4)cc3)nc3[nH]nc(Cl)c23)C1` [Example 42], the figures for the half-inhibitory concentration (IC50) in assay [1] and in assay [2] were 5.1 nM and 3.2 nM, respectively.

Consider `C=CC(=O)N1CCC[C@@H](Nc2nc(Nc3ccc(-n4nc(C)cc4C)cc3)nc3[nH]nc(Cl)c23)C1` [Example 43], for which the values for the half-inhibitory concentration (IC50) in assay [1] and in assay [2] were 9.9 nM and 6.7 nM, respectively.

In the case of `C=CC(=O)N1CCC[C@@H](Nc2nc(Nc3cnn(CC(F)F)c3)nc3[nH]nc(Cl)c23)C1` [Example 44, (R)-1-(3-(3-chloro-6-(1-(2,2-difluoroethyl)-1H-pyrazol-4-ylamino)-1H-pyrazolo[3,4-d]pyrimidin-4-ylamino)piperidin-1-yl)prop-2-en-1-one], the results for the half-maximal inhibitory concentration (IC50) in assay [1] and in assay [2] were 0.3 nM and 2.5 nM, respectively.

`C=CC(=O)N1CCC[C@@H](Nc2nc(Nc3cnn(C)c3)nc3[nH]nc(Cl)c23)C1` [Example 45, (R)-1-(3-(3-chloro-6-(1-methyl-1H-pyrazol-4-ylamino)-1H-pyrazolo [3,4-d]pyrimidin-4-ylamino)piperidin-1-yl)prop-2-en-1-one]: the 50% inhibitory concentration (IC50) in assay [1] stood at 0.7 nM; in assay [2], 2.9 nM.

For `C=CC(=O)N1CCC[C@@H](Nc2nc(Nc3cnn(CC(=O)NC)c3)nc3[nH]nc(Cl)c23)C1` [Example 47, (R)-2-(4-(4-(1-acryloylpiperidin-3-ylamino)-3-chloro-1H-pyrazolo[3,4-d]pyrimidin-6-ylamino)-1H-pyrazol-1-yl)-N-methylacetamide], the results for the IC50 in assay [1] and in assay [2] were 1.1 nM and 5.2 nM, respectively.

Consider `C=CC(=O)N1CCC[C@@H](Nc2nc(Nc3cnn(C4CCOCC4)c3)nc3[nH]nc(Cl)c23)C1` [Example 48, (R)-1-(3-(3-chloro-6-(1-(tetrahydro-2H-pyran-4-yl)-1H-pyrazol-4-ylamino)-1H-pyrazolo[3,4-d]pyrimidin-4-ylamino)piperidin-1-yl)prop-2-en-1-one], for which the IC50 is 0.4 nM in assay [1] and 0.9 nM in assay [2].

As to `C=CC(=O)N1CCC[C@@H](Nc2nc(Nc3cnn(C4CC4)c3)nc3[nH]nc(Cl)c23)C1` [Example 49, (R)-1-(3-(3-chloro-6-(1-cyclopropyl-lH-pyrazol-4-ylamino)-1H-pyrazolo [3,4-d]pyrimidin-4-ylamino)piperidin-1-yl)prop-2-en-1-one], the half-inhibitory concentration (IC50) in assay [1] came out at 0.7 nM; in assay [2] it was 0.9 nM.

Regarding `C=CC(=O)N1CCC[C@@H](Nc2nc(Nc3cnn(C(C)C)c3)nc3[nH]nc(Cl)c23)C1` [Example 50, (R)-1-(3-(3-chloro-6-(1-isopropyl-1H-pyrazol-4-ylamino)-1H-pyrazolo[3,4-d]pyrimidin-4-ylamino)piperidin-1-yl)prop-2-en-1-one], the IC50 in assay [1] stood at 0.8 nM; in assay [2] it was 1.8 nM.

On to `C=CC(=O)N1CCC[C@@H](Nc2nc(Nc3cnn(CCC)c3)nc3[nH]nc(Cl)c23)C1` [Example 51, (R)-1-(3-(3-chloro-6-(1-propyl-lH-pyrazol-4-ylamino)-1H-pyrazolo [3,4-d]pyrimidin-4-ylamino)piperidin-1-yl)prop-2-en-1-one], for which the IC50 stood at 0.8 nM in assay [1] and 1.8 nM in assay [2].

Take `C=CC(=O)N1CCC[C@@H](Nc2nc(Nc3cnn(CC#N)c3)nc3[nH]nc(Cl)c23)C1` [Example 52, (R)-2-(4-(4-(1-acryloylpiperidin-3-ylamino)-3-chloro-1H-pyrazolo[3,4-d]pyrimidin-6-ylamino)-1H-pyrazol-1-yl)acetonitrile]: the results for the IC50 in assay [1] and in assay [2] were 0.2 nM and 0.8 nM, respectively.

In the case of `C=CC(=O)N1CCC[C@@H](Nc2nc(Nc3cnn(C(C)(C)C)c3)nc3[nH]nc(Cl)c23)C1` [Example 53, (R)-1-(3-(6-(1-tert-butyl-1H-pyrazol-4-ylamino)-3-chloro-1H-pyrazolo[3,4-d]pyrimidin-4-ylamino)piperidin-1-yl)prop-2-en-1-one], the IC50 in assay [1] is 1 nM; in assay [2] it was 0.9 nM.

For `C=CC(=O)N1CCC[C@@H](Nc2nc(Nc3cnn(CCN4CCOCC4)c3)nc3[nH]nc(Cl)c23)C1` [Example 54, (R)-1-(3-(3-chloro-6-(1-(2-morpholinoethyl)-1H-pyrazol-4-ylamino)-1H-pyrazolo [3,4-d]pyrimidin-4-ylamino)piperidin-1-yl)prop-2-en-1-one], the IC50 came to 0.7 nM in assay [1] and 1.8 nM in assay [2].

On to `C=CC(=O)N1CCC[C@@H](Nc2nc(Nc3cnn(CC(C)C)c3)nc3[nH]nc(Cl)c23)C1` [Example 55, (R)-1-(3-(3-chloro-6-(1-isobutyl-1H-pyrazol-4-ylamino)-1H-pyrazolo [3,4-d]pyrimidin-4-ylamino)piperidin-1-yl)prop-2-en-1-one], for which the IC50 in assay [1] turned out to be 1.3 nM; in assay [2], 1.2 nM.

For the molecule `C=CC(=O)N1CCC[C@@H](Nc2nc(Nc3cnn(CC(F)(F)F)c3)nc3[nH]nc(Cl)c23)C1` [Example 56, (R)-1-(3-(3-chloro-6-(1-(2,2,2-trifluoroethyl)-1H-pyrazol-4-ylamino)-1H-pyrazolo[3,4-d]pyrimidin-4-ylamino)piperidin-1-yl)prop-2-en-1-one], the IC50 worked out at 0.3 nM in assay [1] and 1.8 nM in assay [2].

For the molecule `C=CC(=O)N1CCC[C@@H](Nc2nc(Nc3cnn(CCN(CC)CC)c3)nc3[nH]nc(Cl)c23)C1` [Example 57, (R)-1-(3-(3-chloro-6-(1-(2-(diethylamino)ethyl)-1H-pyrazol-4-ylamino)-1H-pyrazolo [3,4-d]pyrimidin-4-ylamino)piperidin-1-yl)prop-2-en-1-one], the half-maximal inhibitory concentration (IC50) in assay [1] came out at 0.4 nM; in assay [2], 1.8 nM.
